Assay: molar heat capacity at constant volume
Details: Fluid (supercritical or subcritical phases), Vacuum adiabatic calorimetry

CCC(C)O (stereo not drawn) [butan-2-ol]
Details	molar heat capacity at constant volume [J/K/mol]
492.78 K, Mass density=538.17 kg/m3	240.45
492.97 K, Mass density=538.17 kg/m3	211.02
493.16 K, Mass density=538.17 kg/m3	211.77
493.36 K, Mass density=538.17 kg/m3	215.03
493.55 K, Mass density=474.07 kg/m3	293.52
493.55 K, Mass density=538.17 kg/m3	215.03
493.74 K, Mass density=474.07 kg/m3	285.37
493.93 K, Mass density=474.07 kg/m3	291.3
494.12 K, Mass density=474.07 kg/m3	294.26
494.31 K, Mass density=474.07 kg/m3	297.97
494.5 K, Mass density=474.07 kg/m3	291.3
494.69 K, Mass density=474.07 kg/m3	288.33
494.88 K, Mass density=474.07 kg/m3	272.77
495.07 K, Mass density=474.07 kg/m3	277.21
495.26 K, Mass density=474.07 kg/m3	272.77
495.45 K, Mass density=474.07 kg/m3	279.44
501.71 K, Mass density=76.44 kg/m3	522.04
501.9 K, Mass density=76.44 kg/m3	509.29
502.09 K, Mass density=76.44 kg/m3	497.21
502.28 K, Mass density=76.44 kg/m3	502.03
502.46 K, Mass density=76.44 kg/m3	499.06
502.65 K, Mass density=76.44 kg/m3	495.28
502.84 K, Mass density=76.44 kg/m3	491.43
503.03 K, Mass density=76.44 kg/m3	490.83
503.22 K, Mass density=76.44 kg/m3	487.05
503.41 K, Mass density=76.44 kg/m3	488.98
503.6 K, Mass density=76.44 kg/m3	491.8
503.97 K, Mass density=76.44 kg/m3	497.73
504.16 K, Mass density=76.44 kg/m3	500.54
504.35 K, Mass density=76.44 kg/m3	512.25
504.54 K, Mass density=76.44 kg/m3	524.04
504.73 K, Mass density=76.44 kg/m3	551.69
504.92 K, Mass density=76.44 kg/m3	530.27
505.11 K, Mass density=76.44 kg/m3	521.82
505.29 K, Mass density=76.44 kg/m3	499.58
505.48 K, Mass density=76.44 kg/m3	412.34
505.67 K, Mass density=76.44 kg/m3	315.91
505.86 K, Mass density=76.44 kg/m3	251.94
506.05 K, Mass density=76.44 kg/m3	248.83
510.37 K, Mass density=474.07 kg/m3	291.3
510.55 K, Mass density=474.07 kg/m3	290.56
510.74 K, Mass density=474.07 kg/m3	293.52
510.93 K, Mass density=474.07 kg/m3	293.52
511.49 K, Mass density=474.07 kg/m3	292.04
511.68 K, Mass density=474.07 kg/m3	295
511.87 K, Mass density=474.07 kg/m3	292.78
512.43 K, Mass density=474.07 kg/m3	296.49
512.61 K, Mass density=474.07 kg/m3	295.75
512.8 K, Mass density=474.07 kg/m3	295.75
513.18 K, Mass density=95.93 kg/m3	639
513.36 K, Mass density=95.93 kg/m3	647.6
513.36 K, Mass density=474.07 kg/m3	281.66
513.55 K, Mass density=95.93 kg/m3	645.08

Source: the NIST ThermoML archive (doi:10.1016/j.tca.2013.08.031)
